Measured values as given in patent US6939859B1, “Skin preparations for external use” (CCI Corp., priority 1999, dated 2005).

Legend:
interleukin-1α (IL-1α) [1] = assay: Effect of preventing UVB-induced cytokine (IL-1α production, sample present during irradiation); assay type: cell-based; details: cornified cells of normal human neonate foreskin; 0.1 mM sample during UVB 30 mJ/cm^2; 6 h culture; ELISA; means ± S.E.
Experimental: Cornified cells of normal human neonate foreskin scurfskin (freeze-preserved product, made by Kurabo K.K.) were adjusted to a cell density of 1.0×10^5 pieces/ml in a HuMedia-KG2 culture medium (made by Kurabo K.K.), sown in a unit volume of 2 ml in the component wells of a 6-hole plate, and cultured in an atmosphere of 5% CO2 at 37° C. for 24 hours. After completion of the culture, the culture medium was removed and the wells were each washed twice with 2 ml of Hanks buffer. Some of these wells to which the Hanks buffer alone was added in a unit amount of 1 ml formed a control group and the remainders of them to which the Hanks buffer containing 0.1 mM of a given sample was added in a unit amount of 1 ml formed a sample-added group. The groups each consisted of 8 samples. They were irradiated with a UVB (312 nm) emitted from an ultraviolet lamp (made by Cosmo Bio K.K.) at a dosage of 30 mJ/cm^2. The amount of the energy so emitted was measured by the use of an ultraviolet light intensity meter (made by Topcon K.K. and sold under the trademark designation of “UVR-2).
Immediately after completion of the irradiation, the wells were each washed twice with 2 m of Hanks buffer. With a HuMedia-KG2 culture medium added in a unit volume of 1 ml to the wells, the contents of the wells were cultured in an atmosphere of 5% CO2 at 37° C. for 6 hours.
(§1) The supernatant occurring at the end of 6 hours' culture was recovered and centrifuged at 1000 rpm for 5 minutes. The concentration of the IL-1α in the resultant supernatant was determined by the use of an ELISA kit made by ENDOGENE Corp. The significance was verified by the t-test and was applied to the groups yet to be treated.

interleukin-1α (IL-1α) [2] = assay: Effect of curing UVB disorder (IL-1α production, sample added after irradiation); assay type: cell-based; details: cornified cells of normal human neonate foreskin; 0.1 mM sample added after UVB 30 mJ/cm^2; 6 h culture; ELISA; means ± S.E.
Experimental: Cornified cells of normal human neonate foreskin scurfskin (freeze-preserved product, made by Kurabo K.K.) were adjusted to a cell density of 1.0×10^5 pieces/ml in a HuMedia-KG2 culture medium (made by Kurabo K.K.), sown in a unit volume of 2 ml in the component wells of a 6-hole plate, and cultured in an atmosphere of 5% CO2 at 37° C. for 24 hours. After completion of the culture, the culture medium was removed and the wells were each washed twice with 2 ml of Hanks buffer. The Hanks buffer alone was added in a unit volume of 1 ml to the wells. They were irradiated with a UVB (312nm) emitted from an ultraviolet lamp (made by Cosmo Bio K.K.) at a dosage of 30 mJ/cm”. The amount of the energy so emitted was measured by the use of an ultraviolet light intensity meter (made by Topcon K.K. and sold under the trademark designation of “UVR-2”) . . . . Some of these wells to which the Hanks buffer alone was added in a unit amount of 1 ml formed a control group and the remainders of them to which the Hanks buffer containing 0.1 mM of a given sample was added in a unit amount of 1 ml formed a sample-added group. The groups each consisted of 8 samples. The contents of the wells were cultured in an atmosphere of 5% CO2 at 37° C. for 6 hours.
as §1

V79 = assay: Test for confirming effect of promoting growth of cells, V79; assay type: cell-based, Chinese hamster; details: 100 μM chromanol glycoside, 72 h, neutral red, control = 100%
Experimental: (§2) V79 or NB1RGB was adjusted with a culture medium till the cell density reached 5×10^4 pieces/ml. Then, it was sown in a unit volume of 100 μl in the component wells of a 96-hole plate and cultured in an atmosphere of 5% CO2 at 37° C. for 72 hours. The culture medium used herein was the ordinary culture medium. Some of the wells effecting culture in the ordinary culture medium containing 100 μM of chromanol glycoside formed a chromanol glycoside-added group and the remainders of the wells effecting culture in the ordinary culture medium formed a control group. The groups each consisted of 80 samples. After the elapse of 72 hours from thence, a neutral red reagent (0.015%) was added in a unit volume of 100 μl to the wells and the resultant contents of the wells were cultured for 3 hours. After the 3 hours' culture, the culture medium was removed and a fixing solution (aqueous solution containing 0.5% of formaldehyde and 0.1% of calcium chloride) was added in a unit volume of 200 μl to the wells. The resultant contents of the wells were left fixing for one minute and then the fixing solution was removed. Subsequently, an extraction solution (aqueous solution containing 50% of ethanol and 1% of acetic acid) was added in a unit volume of 100 μl to the wells. The resultant contents of the wells were left standing for 20 minutes and measured for absorbency at 490 nm by the use of a micro-plate reader so as to allow computation of the number of cells. On the basis of the results of the measurement, the relative breeding ratios of the samples were determined, with the number of cells in the control groups taken as 100%.

[3] = tested on: fibroblasts originating in the lungs of Chinese hamster (V79); assay: Test for confirming effect of preventing ultraviolet light (UVB) disorder, V79 cells; assay type: cell-based; details: 1 mM chromanol glycoside, UVB 312 nm 60 mJ/cm^2, 72 h culture, neutral red, non-irradiated = 100%
Experimental: (§3) The fibroblasts originating in the lungs of Chinese hamster (V79) or the diploid fibroblasts originating in the skin-of a normal person (NB1RGB) were adjusted in a culture medium till the cell density reached 5.0×10^4 pieces/ml, sown at a rate of 100 μl in each of the wells on a 96-hole plate, and cultured in an atmosphere of 5% CO2 kept at 37° C. for 24 hours. As the culture medium, an E-MEM medium containing 10% bovine fetus serum (made by Nissui K.K.) For V79 or an α-MEM medium (made by SIGMA) for NB1RGB (hereinafter each referred to as “ordinary culture medium”).
(§4) After 24 hours' culture, the culture medium was removed and the individual wells were each washed twice with 200 μl of Hanks equilibrium salt buffer (Hanksbuffer). Some of these wells to which the Hanks buffer alone was added in a unit amount of 100 μl formed a control group and the remainders of them to which the Hanks buffer having a given chromanol glycoside dissolved till a final concentration of 1 mM was added in a unit amount of 100 μl formed a chromanol glycoside-added group. The groups each consisted of 46 samples. They were irradiated with a UVB (312 nm) emitted from an ultraviolet lamp (made by Cosmo Bio K.K.) at a dosage of 60 mJ/cm^2. The amount of the energy so emitted was measured by the use of an ultraviolet light intensity meter (made by Topcon K.K. and sold under the product code of “UVR-2”).
(§5) Immediately after completion of the irradiation, the wells were each washed twice with 200 μl. With the ordinary culture medium added in a unit volume of 100 μl to the wells, the contents of the wells were cultured for 72 hours. After the elapse of 72 hours from thence, the neutral red reagent (0.015%) was added in a unit volume of 100 μl to the wells and the resultant contents of the wells were cultured for 3 hours. After the elapse of 3 hours from thence, the culture medium was removed and a fixing solution (aqueous solution containing 0.5% of formaldehyde and 0.1% of calcium chloride) was added in a unit volume of 200 μl to the wells. The resultant contents of the wells were fixed for one minute and the fixing solution was removed from the wells. Then, an extracting solution (aqueous solution containing 50% of ethanol and 1% of acetic acid) were added in a unit volume of 100 μl to the wells. The resultant contents of the wells were left standing for 20 minutes and assayed with a micro-plate reader for the absorbency at 490 nm and visually examined to count the number of live cells. On the basis of the results of the assay, the relative survival ratios of the samples were determined, with the number of cells in the groups of wells not irradiated with the ultraviolet light taken as 100%.

NB1RGB = assay: Test for confirming effect of promoting growth of cells, NB1RGB; assay type: cell-based, human; details: 100 μM chromanol glycoside, 72 h, neutral red, control = 100%
Experimental: as §2

[4] = tested on: diploid fibroblasts originating in the skin of a normal person (NB1RGB); assay: Test for confirming effect of preventing ultraviolet light (UVB) disorder, NB1RGB cells; assay type: cell-based, human; details: 1 mM chromanol glycoside, UVB 312 nm 60 mJ/cm^2, 72 h culture, neutral red, non-irradiated = 100%
Experimental: as §3, §4, §5

[5] = tested on: pigment-sedimented skin of colored guinea pigs; assay: Improving effect relative to deposition of ultraviolet light-induced pigment; assay type: in vivo, guinea pig; details: 5% TMG solution in 50% ethanol, applied twice daily for three weeks, 5.6 μl/cm^2; brightness of skin (L value)
Experimental: Pigment-sedimented models wee produced from Al-1 type colored guinea pigs (female, 7-week old) divided into groups of 6 heads by shaving their backs and performing the irradiation of the skins of the backs with the ultraviolet light (light source: xenon lamp, dose: 2 MED×1 minute) once daily up to a total of three repetitions three to four days apart. After the models had been left standing for 10 days from thence, the specific portions of the pigment-sedimented parts were measured for the brightness of skin (L value) by the use of a calorimeter (former value). To the pigment-sedimented parts, a 5% TMG solution adjusted by using a 50% ethanol solution as a solvent was applied twice daily continuously for three weeks (amount applied:5.6 μl/cm^2). The guinea pigs which had undergone this application formed a TMG-applied group. The guinea pigs which had undergone application of a 50% ethanol solution in the place of the 5% TMG solution formed a control group. After three weeks from the start of the application, the skins of their backs were measured for the brightness with a calorimeter (latter value) to find the ΔL value(former value−lattervalue).

ICR type mice = assay: Test for acute toxicity; assay type: in vivo; details: oral, 500 mg/kg as TMG in 5% gum arabic, observation for one week
Experimental: The dermatological agent for external use of this invention was tested for acute toxicity so as to establish the safety thereof. ICR type mice4-5 weeks old were divided into groups each of three heads. The same TMG as mentioned above was suspended as a chromanol glycoside in a 5% gum arabic solution. The suspension was orally administered to the mice at a unit dosage of 500 mg/kg as reduced to TMG and the mice were kept under observation for one week. To the mice in the control group, a 5% gum arabic solution was orally administered in a unit volume of 0.3 ml. No fatality was found in any of the mice in the administration group.

Row | SMILES | Amount of IL-1α produced, Effect of prevention (interleukin-1α (IL-1α) [1]) | Amount of IL-1α produced, Effect of curing (interleukin-1α (IL-1α) [2]) | Breeding ratio (%) (V79) | Survival ratio (%) [3] | Breeding ratio (%) (NB1RGB) | Survival ratio (%) [4] | ΔL value [5] | Fatality (acute toxicity) (ICR type mice)
1 | N[C@@H](CCC(=O)N[C@@H](CS)C(=O)NCC(=O)O)C(=O)O [Glutathione] | 7.2 ± 3.4 µg/mL | 36.5 ± 1.6 µg/mL |  |  |  |  |  | 
2 | Cc1c(C)c2c(c(C)c1O)CCC(C)(C[C@H]1O[C@H](CO)[C@@H](O)[C@H](O)[C@@H]1O)O2 (stereo partly drawn) [TMMA, 2-(α-D-Mannopyranosyl)methyl-2,5,7,8-tetramethyl chroman-6-ol] |  |  | 124% | 96 ± 9 % | 121% | 79 ± 8.7 % |  | 
3 | Cc1c(C)c2c(c(C)c1O)CCC(C)(C[C@H]1O[C@H](CO)[C@@H](O)[C@H](O)[C@H]1O)O2 (stereo partly drawn) [TMG, 2-(α-D-Glucopyranosyl)methyl-2,5,7,8-tetramethyl chroman-6-ol] | 14.5 ± 3.5 µg/mL | 18.5 ± 4.2 µg/mL | 112% | 75 ± 8 % | 118% | 78 ± 16 % | 2.00 | No fatality
4 | Cc1c(C)c2c(c(C)c1O)CCC(C)(C[C@]1(CO)O[C@H](CO)[C@@H](O)[C@@H]1O)O2 (stereo partly drawn) [TMFR, 2-(β-D-Fructofuranosyl)methyl-2,5,7,8-tetramethyl chroman-6-ol] |  |  | 126% | 89 ± 9 % | 115% | 81 ± 12 % |  | 
5 | O=C1O[C@H]([C@@H](O)CO)C(O)=C1O [Ascorbic acid] | 16.5 ± 2.8 µg/mL | 31.7 ± 5.0 µg/mL |  |  |  |  |  | 
6 | Cc1c(C)c2c(c(C)c1O)CCC(C)(C[C@@H]1O[C@H](CO)[C@H](O)[C@H](O)[C@H]1O)O2 (stereo partly drawn) [TMGA, 2-(β-D-Galactopyranosyl)methyl-2,5,7,8-tetramethyl chroman-6-ol] |  |  | 115% | 83 ± 7 % | 121% | 83 ± 14 % |  | 
